These results are taken from patent publication US7601716B2, “Pyridopyrazines and derivatives thereof as ALK and c-Met inhibitors” (Cephalon, Inc., priority 2006, dated 2009).

Molecules are shown by their SMILES. Where a name gives a salt, the structure may show the parent alone. A value given as a limit tells only on which side of the number the result lay.

For test [1], the target named is baculovirus-expressed ALK (Homo sapiens, UniProt Q9UM73). Description: ALK Kinase Assay (ELISA/TRF, PLC-γ substrate). Note: 1 µM ATP (Km level). To be noted: read-out: ALK Kinase Inhibition (IC50). It counts as biochemical. Put shortly:
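IC50 values fitted by nonlinear sigmoidal regression (variable slope) of percent inhibition against log compound concentration. Read-out was TRF of Eu-N1 anti-phosphotyrosine antibody bound to phosphorylated, plate-coated GST-PLC-γ (10 µg/mL). Kinase reaction used ALK at 30 ng/ml for 15 min at 37 °C.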
(In general: In an ELISA, binding on a coated surface is turned into a signal by an enzyme label.)

Test [2] has as its target T1, c-Met (cytoplasmic domain) (Homo sapiens, UniProt P08581).
T1 construct: Reactions were initiated with 30 ng/mL c-Met (cytoplasmic domain, Invitrogen Corporation #PV3143); purchased Invitrogen Corporation PV3143
Description: c-Met Kinase Assay (ELISA/TRF, PLC-γ substrate). It counts as biochemical. To be noted: 3 μM ATP (Km level); read-out: c-Met Kinase Inhibition (IC50). The essentials: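 Readout is TRF of europium anti-phosphotyrosine (PT66) bound to GST–PLC-γ substrate coated at 10 μg/mL, after a 15 min, 37 °C reaction started with 30 ng/mL c-Met cytoplasmic domain. Percent inhibition plotted against log compound concentration and fitted (variable slope) for IC50.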

T1 sequence (P08581 956-1390 limits assumed): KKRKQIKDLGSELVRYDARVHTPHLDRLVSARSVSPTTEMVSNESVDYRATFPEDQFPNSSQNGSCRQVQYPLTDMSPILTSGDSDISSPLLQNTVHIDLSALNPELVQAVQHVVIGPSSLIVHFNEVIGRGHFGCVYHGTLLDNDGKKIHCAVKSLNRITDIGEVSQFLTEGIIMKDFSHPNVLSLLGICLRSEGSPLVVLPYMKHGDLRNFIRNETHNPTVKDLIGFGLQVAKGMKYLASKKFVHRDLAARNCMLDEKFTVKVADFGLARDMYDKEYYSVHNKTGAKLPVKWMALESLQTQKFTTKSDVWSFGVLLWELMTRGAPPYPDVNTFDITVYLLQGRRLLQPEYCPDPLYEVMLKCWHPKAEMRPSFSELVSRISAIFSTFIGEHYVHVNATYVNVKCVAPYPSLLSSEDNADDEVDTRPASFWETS
baculovirus-expressed ALK, sequence (Q9UM73 19-1620): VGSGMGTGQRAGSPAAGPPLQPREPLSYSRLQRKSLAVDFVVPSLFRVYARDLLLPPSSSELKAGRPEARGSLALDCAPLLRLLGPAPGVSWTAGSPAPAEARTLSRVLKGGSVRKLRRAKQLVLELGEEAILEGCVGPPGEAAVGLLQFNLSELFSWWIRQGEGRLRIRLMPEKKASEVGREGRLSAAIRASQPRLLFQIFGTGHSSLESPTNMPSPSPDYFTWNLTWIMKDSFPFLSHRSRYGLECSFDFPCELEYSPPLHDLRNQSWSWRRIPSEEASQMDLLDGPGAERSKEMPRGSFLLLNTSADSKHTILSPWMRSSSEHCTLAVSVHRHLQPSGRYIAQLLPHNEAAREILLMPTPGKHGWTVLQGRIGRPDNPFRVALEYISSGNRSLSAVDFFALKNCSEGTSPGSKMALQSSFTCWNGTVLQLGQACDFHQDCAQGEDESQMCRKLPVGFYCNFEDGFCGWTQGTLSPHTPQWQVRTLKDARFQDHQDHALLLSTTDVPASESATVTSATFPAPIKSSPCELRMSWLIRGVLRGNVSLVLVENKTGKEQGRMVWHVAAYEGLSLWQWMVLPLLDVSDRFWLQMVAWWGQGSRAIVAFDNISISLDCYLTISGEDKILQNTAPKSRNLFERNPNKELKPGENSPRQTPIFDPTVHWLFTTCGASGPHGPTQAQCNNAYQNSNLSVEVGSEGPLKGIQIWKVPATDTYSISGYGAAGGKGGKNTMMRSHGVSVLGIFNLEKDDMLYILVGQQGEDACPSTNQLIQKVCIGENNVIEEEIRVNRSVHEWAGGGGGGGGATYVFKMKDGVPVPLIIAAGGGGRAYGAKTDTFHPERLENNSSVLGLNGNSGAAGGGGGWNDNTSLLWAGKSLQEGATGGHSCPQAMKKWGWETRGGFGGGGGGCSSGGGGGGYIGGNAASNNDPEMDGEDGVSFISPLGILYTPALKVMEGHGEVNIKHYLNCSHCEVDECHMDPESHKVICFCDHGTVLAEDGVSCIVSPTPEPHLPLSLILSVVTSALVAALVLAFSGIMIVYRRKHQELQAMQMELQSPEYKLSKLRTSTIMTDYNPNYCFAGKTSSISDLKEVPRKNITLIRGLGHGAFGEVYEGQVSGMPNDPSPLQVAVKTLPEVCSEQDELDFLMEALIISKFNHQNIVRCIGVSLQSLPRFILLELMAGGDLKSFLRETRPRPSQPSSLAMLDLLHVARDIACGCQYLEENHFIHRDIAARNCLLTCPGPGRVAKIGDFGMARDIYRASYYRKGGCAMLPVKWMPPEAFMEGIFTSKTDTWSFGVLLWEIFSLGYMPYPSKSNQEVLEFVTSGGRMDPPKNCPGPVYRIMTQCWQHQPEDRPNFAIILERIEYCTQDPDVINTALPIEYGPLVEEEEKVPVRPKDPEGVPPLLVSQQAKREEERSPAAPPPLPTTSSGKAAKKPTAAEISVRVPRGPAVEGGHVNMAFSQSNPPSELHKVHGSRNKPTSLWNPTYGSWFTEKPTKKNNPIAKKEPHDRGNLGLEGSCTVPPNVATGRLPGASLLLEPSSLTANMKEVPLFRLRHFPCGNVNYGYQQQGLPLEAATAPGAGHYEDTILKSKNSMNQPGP

For the molecule `O=C(c1cnc2c(c1)N(Cc1cc(Cl)ccc1Cl)CCN2)N1CCN(Cc2ccc(Cl)cc2)CC1` [Example 255, [4-(4-Chlorobenzyl)piperazin-1-yl]-[1-(2,5-dichlorobenzyl)-1,2,3,4-tetrahydropyrido[2,3-b]pyrazin-7-yl]methanone], the values for the IC50 in test [1] and in test [2] were 1 to 10 µM and more than 100 µM, respectively.

As for `CN1CCN(c2cc(-c3cnc4c(c3)N(Cc3ccc(C(F)(F)F)o3)CCN4)ccn2)CC1` [Example 293, 7-[2-(4-Methylpiperazin-1-yl)pyridin-4-yl]-1-[5-(trifluoromethyl)furan-2-ylmethyl]-1,2,3,4-tetrahydropyrido[2,3-b]pyrazine], the IC50 in test [1] and in test [2] was 1 to 10 µM in each case.

Turning to `CCNC(=O)c1cccc(-c2cnc3c(c2)N(Cc2ccccc2)C(=O)CN3)c1` [Example 22, 3-(1-Benzyl-2-oxo-1,2,3,4-tetrahydropyrido[2,3-b]pyrazin-7-yl)-N-ethyl-benzamide], the 50% inhibitory concentration (IC50) in test [1] and in test [2] was more than 100 µM each time.

In the case of `O=C(c1cnc2c(c1)N(Cc1cc(Cl)ccc1Cl)CCN2)N1CCN(c2ncccn2)CC1` [Example 207, [1-(2,5-Dichlorobenzyl)-1,2,3,4-tetrahydropyrido[2,3-b]pyrazin-7-yl]-(4-pyrimidin-2-yl-piperazin-1-yl)-methanone], the 50% inhibitory concentration (IC50) in test [1] is 1 to 10 µM; in test [2] it was more than 100 µM.

Take `O=C(c1ccc(-c2cnc3c(c2)N(Cc2cc(F)c(F)cc2F)CCN3)cc1)N1CCC[C@H]1CN1CCCC1` [Example 84, ((S)-2-((pyrrolidin-1-yl)methyl)pyrrolidin-1-yl)-{4-[1-(2,4,5-trifluorobenzyl)-1,2,3,4-tetrahydropyrido[2,3-b]pyrazin-7-yl]phenyl}-methanone]: the IC50 lay in the range of 0.1 to 1 µM in test [1] and 1 to 10 µM in test [2].

With `CN(C)CCCCNC(=O)c1ccc(-c2cnc3c(c2)N(Cc2ccccc2)C(=O)CN3)cc1` [Example 15, 4-(1-Benzyl-2-oxo-1,2,3,4-tetrahydropyrido[2,3-b]pyrazin-7-yl)-N-(4-dimethylaminobutyl)benzamide, trifluoroacetic acid salt], the IC50 fell in the range of 1 to 10 µM in test [1] and 10 to 100 µM in test [2].

As to `CC(c1cc(F)c(F)cc1F)N1C(=O)CNc2ncc(-c3ccc(C(=O)N4CCN(C)CC4)cc3)cc21` (stereo not drawn) [Example 146, 7-[4-(4-Methylpiperazine-1-carbonyl)phenyl]-1-[1-(2,4,5-trifluorophenyl)ethyl]-3,4-dihydro-1H-pyrido[2,3-b]pyrazin-2-one, trifluoroacetic acid salt], the values for the IC50 in test [1] and in test [2] were more than 100 µM and 10 to 100 µM, respectively.

In the case of `FC(F)(F)c1ccc(Cl)cc1CN1CCNc2ncc(-c3cc[nH]c3)cc21` [Example 202, 1-[5-Chloro-2-(trifluoromethyl)benzyl]-7-(1H-pyrrol-3-yl)-1,2,3,4-tetrahydro-pyrido[2,3-b]pyrazine], the IC50 was in the range of 0.1 to 1 µM in test [1] and 10 to 100 µM in test [2].

`O=C(c1cnc2c(c1)N(Cc1cc(Cl)ccc1Cl)CCN2)N1CCN(C(c2ccccc2)c2ccccc2)CC1` [Example 214, (4-Benzhydrylpiperazin-1-yl)-[1-(2,5-dichlorobenzyl)-1,2,3,4-tetrahydropyrido[2,3-b]pyrazin-7-yl]methanone]: the IC50 in test [1] and in test [2] was 10 to 100 µM throughout.

Regarding `O=C(NC1CCCCC1)c1cnc2c(c1)N(Cc1cc(Cl)ccc1Cl)CCN2` [Example 248, 1-(2,5-Dichlorobenzyl)-1,2,3,4-tetrahydropyrido[2,3-b]pyrazine-7-carboxylic acid cyclohexylamide], the half-inhibitory concentration (IC50) is 1 to 10 µM in test [1] and more than 100 µM in test [2].

As for `O=C(NCc1ccccc1)c1cnc2c(c1)N(Cc1cc(Cl)ccc1Cl)CCN2` [Example 246, 1-(2,5-Dichlorobenzyl)-1,2,3,4-tetrahydropyrido[2,3-b]pyrazine-7-carboxylic acid benzylamide], the IC50 is 0.1 to 1 µM in test [1] and more than 100 µM in test [2].

As for `CC(=O)N1CCN(C(=O)c2cnc3c(c2)N(Cc2cc(Cl)ccc2Cl)CCN3)CC1` [Example 227, 1-{4-[1-(2,5-Dichlorobenzyl)-1,2,3,4-tetrahydropyrido[2,3-b]pyrazine-7-carbonyl]piperazin-1-yl}ethanone], the IC50 in test [1] and in test [2] was 10 to 100 µM throughout.

On to `O=C(c1cnc2c(c1)N(Cc1cc(Cl)ccc1Cl)CCN2)N1CCN(CCc2ccccc2)CC1` [Example 260, [1-(2,5-Dichlorobenzyl)-1,2,3,4-tetrahydropyrido[2,3-b]pyrazin-7-yl]-(4-phenethyl-piperazin-1-yl)methanone], for which the IC50 in test [1] is 1 to 10 µM; in test [2] it was more than 100 µM.

Turning to `O=C(c1cnc2c(c1)N(Cc1cc(Cl)ccc1Cl)CCN2)N1CCN(c2cccc(C(F)(F)F)c2)CC1` [Example 211, [1-(2,5-Dichlorobenzyl)-1,2,3,4-tetrahydropyrido[2,3-b]pyrazin-7-yl]-{4-[3-(trifluoromethyl)phenyl]piperazin-1-yl}methanone], the concentration for half-maximal inhibition (IC50) in test [1] and in test [2] was 10 to 100 µM each time.

Consider `O=C(NCCc1cccs1)c1cnc2c(c1)N(Cc1cc(Cl)ccc1Cl)CCN2` [Example 232, 1-(2,5-Dichlorobenzyl)-1,2,3,4-tetrahydropyrido[2,3-b]pyrazine-7-carboxylic acid (2-thiophen-2-yl-ethyl)amide], for which the IC50 is 0.1 to 1 µM in test [1] and more than 100 µM in test [2].

For the molecule `O=C(c1cnc2c(c1)N(Cc1cc(Cl)ccc1Cl)CCN2)N1CCN(c2ccc(Cl)cc2)CC1` [Example 250, [4-(4-Chlorophenyl)piperazin-1-yl]-[1-(2,5-dichlorobenzyl)-1,2,3,4-tetrahydropyrido[2,3-b]pyrazin-7-yl]methanone], the 50% inhibitory concentration (IC50) in test [1] is 0.1 to 1 µM; in test [2], more than 100 µM.

Consider `O=C(c1cnc2c(c1)N(Cc1cc(Cl)ccc1Cl)CCN2)N1CCN(c2ccc(Cl)c(Cl)c2)CC1` [Example 213, [1-(2,5-Dichlorobenzyl)-1,2,3,4-tetrahydropyrido[2,3-b]pyrazin-7-yl]-[4-(3,4-dichlorophenyl)-piperazin-1-yl]methanone], for which the IC50 in test [1] fell in the range of 1 to 10 µM; in test [2] it was 10 to 100 µM.

`O=C(c1cnc2c(c1)N(Cc1cc(Cl)ccc1Cl)CCN2)N1CCC[C@H]1CN1CCCC1` [Example 238, [1-(2,5-Dichlorobenzyl)-1,2,3,4-tetrahydropyrido[2,3-b]pyrazin-7-yl]-((S)-2-pyrrolidin-1-ylmethyl-pyrrolidin-1-yl)methanone]: the IC50 in test [1] was 1 to 10 µM; in test [2] it was more than 100 µM.

On to `CN(C)CCn1cc(-c2cnc3c(c2)N(Cc2c(F)ccc(F)c2Cl)CCN3)cn1` [Example 197, (2-{4-[1-(2-Chloro-3,6-difluorobenzyl)-1,2,3,4-tetrahydropyrido[2,3-b]pyrazin-7-yl]-pyrazol-1-yl}ethyl)dimethylamine], for which the IC50 in test [1] lay in the range of 0.1 to 1 µM; in test [2], 1 to 10 µM.

On to `CC(c1cc(F)ccc1F)N1C(=O)CNc2ncc(I)cc21` (stereo not drawn) [Example 150, 1-[1-(2,5-Difluorophenyl)ethyl]-7-iodo-3,4-dihydro-1H-pyrido[2,3-b]pyrazin-2-one], for which the IC50 in test [1] and in test [2] was more than 100 µM in each case.

Turning to `O=C(c1ccc(-c2cnc3c(c2)N(Cc2cccnc2Cl)CCN3)cc1)N1CCC(N2CCCC2)CC1` [Example 303, {4-[1-(2-Chloropyridin-3-ylmethyl)-1,2,3,4-tetrahydropyrido[2,3-b]pyrazin-7-yl]phenyl}-(4-pyrrolidin-1-yl-piperidin-1-yl)methanone], the IC50 in test [1] and in test [2] was more than 100 µM each time.

With `CN1CCN(CCS(=O)(=O)Nc2ccc(-c3cnc4c(c3)N(C(=O)c3ccccc3)CCN4)cc2)CC1` [Example 47, 2-(4-Methylpiperazin-1-yl)-ethanesulfonic acid[4-(1-benzoyl-1,2,3,4-tetrahydropyrido[2,3-b]pyrazin-7-yl)phenyl]amide], the IC50 in test [1] and in test [2] was 10 to 100 µM throughout.

Take `CN1CCN(c2ccc(-c3cnc4c(c3)C(Oc3c(F)ccc(F)c3Cl)CCN4)cn2)CC1` (stereo not drawn) [Example 273, 4-(2-Chloro-3,6-difluorophenoxy)-6-[6-(4-methylpiperazin-1-yl)pyridin-3-yl]-1,2,3,4-tetrahydro-[1,8]naphthyridine]: the IC50 in test [1] and in test [2] was 10 to 100 µM in each case.

For `CN1CCN(C(=O)c2ccc(-c3cnc4c(c3)C(Oc3cc(Cl)ccc3Cl)CCN4)cc2)CC1` (stereo not drawn) [Example 272, {4-[5-(2,5-Dichlorophenoxy)-5,6,7,8-tetrahydro-[1,8]naphthyridin-3-yl]phenyl}-(4-methyl-piperazin-1-yl)methanone], the IC50 lay within 0.1 to 1 µM in test [1] and 1 to 10 µM in test [2].

For the molecule `O=C(c1cccc(-c2cnc3c(c2)N(Cc2ccccc2)C(=O)CN3)c1)N1CCCC1` [Example 20, 1-Benzyl-7-[3-(pyrrolidine-1-carbonyl)phenyl]-3,4-dihydro-1H-pyrido[2,3-b]pyrazin-2-one], the half-maximal inhibitory concentration (IC50) in test [1] was 1 to 10 µM; in test [2], 10 to 100 µM.

On to `CN1CCN(C(=O)c2ccc(-c3cnc4c(c3)N(Cc3ccccc3)C(=O)CN4)cc2)CC1` [Example 25, 1-Benzyl-7-[4-(4-methylpiperazine-1-carbonyl)phenyl]-3,4-dihydro-1H-pyrido[2,3-b]pyrazin-2-one, trifluoroacetic acid salt], for which the IC50 in test [1] lay within 1 to 10 µM; in test [2] it was 10 to 100 µM.

Regarding `O=S(=O)(c1ccccc1)N1CCNc2ncc(I)cc21` [Example 123, 1-Benzenesulfonyl-7-iodo-1,2,3,4-tetrahydropyrido[2,3-b]pyrazine], the IC50 in test [1] and in test [2] was 10 to 100 µM throughout.

For orientation: IC50 means the concentration needed to halve the response being measured.
